Values quoted from earlier work, collected in US11766428B2 (TAVANTA THERAPEUTICS HUNGARY INCORPORATED, priority 2018, dated 2023).

How the values were obtained:
[1] = not given; remark: listed apart in the source

SMILES	solubility in ethanol	solubility in water	circulating drug bound to plasma proteins ([1]; ex vivo, hypertensive patients)	influence of renal impairment on pharmacokinetics ([1]; human, in vivo)	parent compound excreted in the urine ([1]; human, in vivo) [%]	therapeutic plasma level ([1]; human, in vivo) [ng/mL]	effect of food on bioavailability ([1]; oral)
CCOC(=O)C1=C(COCCN)NC(C)=C(C(=O)OC)C1c1ccccc1Cl (racemic) [Amlodipine besylate, 3-ethyl-5-methyl (±)-2-[(2-aminoethoxy)methyl]-4-(2-chlorophenyl)-1,4-dihydro-6-methyl-3,5-pyridinedicarboxylate, monobenzenesulphonate]	sparingly soluble	slightly soluble					
CCOC(=O)C1=C(COCCN)NC(C)=C(C(=O)OC)C1c1ccccc1Cl (stereo not shown) [amlodipine]			approximately 93%	not significantly influenced	10	3 to 10	not altered by the presence of food
